Test results published in patent US20220304945A1, “METHODS OF TREATING METABOLIC SYNDROME RELATED CONDITIONS USING RETINOIC ACID RECEPTOR AGONISTS” (Cornell University, priority 2014, published 2022).
“Also recorded” adds a separate entry of the source.

Legend:
Format in all cases: in vivo, mouse
HF-fed C57/BL6 mice [1] = assay: Renal lipid accumulation: H and E and oil red O staining of kidney, HF-fed mice; settings: HF diet mice 4 months; vs HF-vehicle
Text: (§1) Mice, diet, and drug treatment. WT male C57/BL6 male mice were maintained on either a standard laboratory chow-fed diet (CFD) with 13% kcal fat, (diet #5053, Lab Diet, Inc, St. Louis, Mo.) or a high fat, western style diet (HFD) with 60% kcals from fat, (diet #58126, Lab Diet, Inc., St. Louis, Mo.) for 4 months. One month after the start of the high fat diet treatment, the high fat diet group was further split into 2 groups for 3 months: i) high fat diet and the drinking water containing 1% DMSO; ii) high fat diet and the drinking water containing 1.5 mg/100 ml AC261066, a specific RARβ agonist. Then mice were sacrificed by cervical dislocation. Blood and various tissue samples were harvested.
(§2) Hematoxylin and Eosin Staining. At sacrifice, fresh mouse liver samples were fixed in 4% formaldehyde solution for 24 hr and embedded in paraffin blocks. Kidney paraffin sections were cut 5 microns thick and mounted on glass slides and stained with hematoxylin and eosin (H and E) using standard protocols.
Combined oil red O and Immunofluorescence staining. Fresh mouse kidney samples were embedded in optimal cutting temperature (OCT) medium and immediately frozen to −70 centigrade. Cryosections were then fixed in 4% formaldehyde for 1 hr at room temp. Slides were then rinsed three times in deionized water (dH2O) for 30 s, followed by treatment with 0.5% Triton X-100 in PBS for 5 min. Sections were then washed three times with PBS for 5 min. Samples were with incubated 2% bovine serum albumin (BSA) for 30 min at room temperature to block for unspecific antibody binding. Following blocking, sections were washed three times in PBS and incubated with mouse monoclonal antibody against α-SMA (1:500) (Dako, Inc) for 24 h at 4° C. After 24 h sections were washed three times in PB and incubated with Alexa-Flour-488 anti-mouse secondary anti-body (1:500) (Invitrogen, Inc) for 30 min at room temperature. Sections were then washed three times in PBS and incubated with working strength oil-red O solution for 30 minutes at room temperature. […]

[2] = HPLC analysis of serum and liver retinoids, HF-fed mice; settings: for liver retinyl palmitate and retinol compared to controls: HF diet mice vs control diet
Text: as §1
(§3) Analysis of serum and liver retinoids. The frozen liver tissue samples (˜100 mg) were homogenized in 500 μl cold phosphate-buffered saline (PBS). In addition, 100 μl serum was diluted in cold PBS to total volume of 500 μl. Retinyl acetate was added to each sample before the retinoid extraction for the calculation of extraction efficiency. The retinoids were extracted into 350 μl of organic solution (acetonitrile/butanol, 50:50, v/v) in the dark. The high performance liquid chromatography (HPLC) was performed using a Waters Millennium system (Waters). Each sample (100 μl of the 350 μl) was loaded onto an analytical 5-μm reverse phase C18 column (Vydac, Hesperia, Calif.) and eluted at a flow rate of 1.5 ml/min. Two mobile phase gradient systems were used. Retinoids were identified by HPLC based on two criteria: an exact match of the retention times of unknown peaks with those of authentic retinoid standards and identical UV light spectra (220-400 nm) of unknowns against spectra from authentic retinoid standards during HPLC by the use of a photodiode array detector. The amounts of retinoids were calculated from the areas under the peaks detected at the wave-length of 325 nm. The levels of retinol and retinyl esters were normalized to the tissue weight.
as §3, with “Millenium” for “Millennium”

HF-fed C57/BL6 mice [3] = assay: Hepatic steatosis: H and E and oil red O staining of liver, HF-fed mice; settings: HF diet mice 4 months; vs HF-vehicle
Text: as §1
as §2, with “Liver” for “Kidney”
Combined oil red O and Immunofluorescence. Staining. Fresh mouse liver samples were embedded in optimal cutting temperature (OCT) medium and immediately frozen to −70 centigrade. Cryosections were then fixed in 4% formaldehyde for 1 hr at room temp. Slides were then rinsed three times in deionized water (dH2O) for 30 s, followed by treatment with 0.5% Triton X-100 in PBS for 5 min. Sections were then washed three times with PBS for 5 min. Samples were with incubated 2% bovine serum albumin (BSA) for 30 min at room temperature to block for unspecific antibody binding. Following blocking, sections were washed three times in PBS and incubated with mouse monoclonal antibody against α-SMA (1:500) (Dako, Inc) for 24 h at 4° C. After 24 h sections were washed three times in PB and incubated with Alexa-Flour-488 anti-mouse secondary anti-body (1:500) (Invitrogen, Inc) for 30 min at room temperature. Sections were then washed three times in PBS and incubated with working strength oil-red O solution for 30 minutes at room temperature. Sections were then rinsed for 30 minutes under running tap water and cover-slipped with Vectashield hard mount plus DAPI (Vector Labs, Inc).

Row | Structure (SMILES) | renal lipid accumulation (H and E) (HF-fed C57/BL6 mice [1]) | renal lipid accumulation (oil red O) (HF-fed C57/BL6 mice [1]) | retinyl palmitate in liver, higher than HF-vehicle treated mice ([2]; HF diet mice) | vitamin A deficiency (VA depletion) in liver ([2]; HF diet mice) | liver retinyl palmitate and retinol compared to controls [2] | hepatic lipid accumulation (oil red O) (HF-fed C57/BL6 mice [3]) | hepatic steatosis / hepatocyte lipid accumulation (H and E) (HF-fed C57/BL6 mice [3]) | retinyl palmitate in liver, lower than HF-vehicle treated mice ([2]; HF diet mice)
1 | CCCCOCCOc1nc(-c2ccc(C(=O)O)c(F)c2)sc1C [AC261066] | diminished; also recorded: markedly decreased | marked diminished; also recorded: comparably less | 55% | partially reverses | significantly lowered | marked diminished | diminished; also recorded: prevent; also recorded: marked decreased | –
2 | O=C(O)c1ccc(-c2ccc3cc(O)c(C45CC6CC(CC(C6)C4)C5)cc3c2)cc1 [CD1530] | no decrease | – | – | – | significantly lowered | not observed; also recorded: no evidence decreased | no decrease | ~48%
